Reference: ChEMBL document CHEMBL4342426, “Structure-activity relationship of 4-azaindole-2-piperidine derivatives as agents against Trypanosoma cruzi” (Bioorg Med Chem Lett, 2020)

Legend:
cells = details: Homo sapiens, MRC-5 SV2, 72 h
Description: (§1) Cytotoxicity against human MRC5 SV2 cells assessed as reduction in cell viability incubated for 3 days by fluorimetry

Macrophage = assay: cells; details: Mus musculus, 72 h
Description: (§2) Cytotoxicity against mouse peritoneal Macrophage cells assessed as reduction in cell viability incubated for 3 days by fluorimetry

in vitro [1] = details: human, MRC5 SV2 cells
Description: as §1

in vitro [2] = details: human, MRC5 SV2 cells; remark: listed apart in the source
Description: Selectivity index, ratio of IC50 for human MRC5 SV2 cells to IC50 for Trypanosoma cruzi Tulahuen CL2 amastigotes infected in human MRC5 SV2 cells

in vitro [3] = details: mouse, peritoneal macrophages
Description: as §2

in vitro [4] = details: human, MRC5 SV2 cells; remark: listed apart in the source
Description: Selectivity index, ratio of IC50 for human MRC5 SV2 cells to IC50 for Trypanosoma brucei rhodesiense STIB900 trypomastigotes

Trypanosoma cruzi = assay: microbe, parasite or virus in culture; details: Tulahuen CL2, MRC-5 SV2, 168 h
Description: Antitrypanosomal activity against Trypanosoma cruzi Tulahuen CL2 amastigotes infected in human MRC5 SV2 cells incubated for 7 days by chlorophenol red beta-D-galactopyranoside substrate based spectrophotometric assay

Trypanosoma brucei = assay: microbe, parasite or virus in culture; details: Squib 427, 72 h
Description: Antitrypanosomal activity against Trypanosoma brucei Squib 427 assessed as reduction in parasite growth incubated for 72 hrs by resazurin dye based fluorimetric analysis

[5] = tested on: Trypanosoma brucei rhodesiense; assay: microbe, parasite or virus in culture; details: STIB900, 72 h
Description: Antiprotozoal activity against Trypanosoma brucei rhodesiense STIB900 trypomastigotes incubated for 72 hrs by resazurin dye based fluorimetric analysis

Leishmania infantum = assay: microbe, parasite or virus in culture; details: for IC50: MHOM/MA(BE)/67/ITMAP263, 120 h; for IC90: MHOM/MA(BE)/67/ITMAP263, in Mus musculus, 120 h
Description: Antileishmanial activity against amastigote stage of Leishmania infantum MHOM/MA(BE)/67/ITMAP263 infected in mouse peritoneal macrophage assessed as parasite growth inhibition incubated for 5 days by Giemsa staining based assay

in vitro [6] = details: human, liver microsomes
Description: Metabolic stability in human liver microsomes assessed as intrinsic clearance at 0.5 uM incubated for 30 mins by LC-MS/MS analysis

in vitro [7] = details: mouse, liver microsomes
Description: Metabolic stability in mouse liver microsomes assessed as intrinsic clearance at 0.5 uM incubated for 30 mins by LC-MS/MS analysis

physchem = details: buffer, pH 7.4
Description: Lipophilicity, logD of compound at pH 7.4 by HPLC analysis

in vitro [8] = details: PAMPA
Description: Effective permeability of compound by PAMPA assay

in vitro [9] = details: mouse, liver microsomes; remark: listed apart in the source
Description: Metabolic stability in mouse liver microsomes assessed as fraction unbound at 0.5 uM incubated for 30 mins by LC-MS/MS analysis

| SMILES | IC90 at 72 h (in vitro [1]) | IC90 at 72 h (in vitro [3]) | IC50 (Trypanosoma brucei) | IC90 (Trypanosoma brucei) | IC50 [5] | IC90 [5] | IC50 (Leishmania infantum) | IC90 (Leishmania infantum) | CLint scaled at 0.5 h, 0.5 µM (in vitro [6]) | microsomal CLint at 0.5 h, 0.5 µM (in vitro [6]) | CLint scaled at 0.5 h, 0.5 µM (in vitro [7]) | microsomal CLint at 0.5 h, 0.5 µM (in vitro [7]) | logD (physchem) | Papp (in vitro [8]) | IC50 (cells) | IC50 (Macrophage) | selectivity ratio (in vitro [2]) | selectivity ratio (in vitro [4]) | IC50 (Trypanosoma cruzi) | IC90 (Trypanosoma cruzi) | further results |
| --- | --- | --- | --- | --- | --- | --- | --- | --- | --- | --- | --- | --- | --- | --- | --- | --- | --- | --- | --- | --- | --- |
| O=C(c1cc(C2CC2)no1)N1CCOC(c2cc3ncccc3[nH]2)C1 (stereo not drawn) | 64 µM | 64 µM | 64 µM | 64 µM | 64 µM | 64 µM | 64 µM | 64 µM | < 27.8 mL/min/kg | < 23 µL/min/mg | 279 mL/min/kg | 78.3 µL/min/mg | 2.4 | 3.18 ×10⁻⁶ cm/s | 64 µM | 64 µM | 1.85 |  | 34.6 µM | 63.5 µM | fraction unbound at 0.5 h, 0.5 µM (in vitro [9]): 0.896 |
| CCN(C(=O)CCc1nc2ncccc2[nH]1)c1ccccc1 | 64 µM | 64 µM | 64 µM | 64 µM | 64 µM | 64 µM | 64 µM | 64 µM | 49.3 mL/min/kg | 35.1 µL/min/mg | 426 mL/min/kg | 102 µL/min/mg | 2.23 | 9.64 ×10⁻⁶ cm/s | 64 µM | 64 µM | 1.3 |  | 49.1 µM | 64 µM | fraction unbound at 0.5 h, 0.5 µM (in vitro [9]): 0.767 |
| CN(CCc1cc2ncccc2[nH]1)C(=O)c1ccccc1 | 64 µM | 64 µM | 64 µM | 64 µM | 64 µM | 64 µM | 64 µM | 64 µM | < 30.2 mL/min/kg | < 23 µL/min/mg | 1470 mL/min/kg | 382 µL/min/mg | 1.88 | 2.85 ×10⁻⁶ cm/s | 64 µM | 64 µM | 1.75 |  | 36.2 µM | 64 µM | fraction unbound at 0.5 h, 0.5 µM (in vitro [9]): 0.83 |
| O=C(c1ccc(F)cc1)N1CCCC(c2cc3ncccc3[nH]2)C1 (stereo not drawn) | 64 µM | 64 µM | 64 µM | 64 µM | 32.8 µM | 60.7 µM | 64 µM | 64 µM | 41.3 mL/min/kg | 38.3 µL/min/mg | 1080 mL/min/kg | 337 µL/min/mg | 2.86 | 0.625 ×10⁻⁶ cm/s | 64 µM | 64 µM | 6.38 | 1.98 | 10 µM | 44.1 µM |  |
| CCN(CCc1nc2ncc(Cl)cc2[nH]1)C(=O)c1ccc(F)cc1 | 64 µM | 64 µM | 64 µM | 64 µM | 30.3 µM | 57.6 µM | 64 µM | 64 µM | < 31.7 mL/min/kg | < 23 µL/min/mg | 439 mL/min/kg | 108 µL/min/mg | 2.79 | 11.4 ×10⁻⁶ cm/s | 64 µM | 64 µM |  | 2.1 | 64 µM | 64 µM |  |
| O=C(c1cc(C(F)(F)F)no1)N1CCOC(c2cc3ncccc3[nH]2)C1 (stereo not drawn) | 64 µM | 64 µM | 64 µM | 64 µM | 64 µM | 64 µM | 64 µM | 64 µM | 118 mL/min/kg | 89.8 µL/min/mg | 529 mL/min/kg | 137 µL/min/mg | 2.89 | 4.3 ×10⁻⁶ cm/s | 64 µM | 64 µM | 1.8 |  | 35.7 µM | 64 µM | fraction unbound at 0.5 h, 0.5 µM (in vitro [9]): 0.825 |

Now from value to molecule, other results behind:

| IC90 at 72 h (in vitro [1]) | IC90 at 72 h (in vitro [3]) | IC50 (Trypanosoma brucei) | IC90 (Trypanosoma brucei) | IC50 [5] | IC90 [5] | IC50 (Leishmania infantum) | IC90 (Leishmania infantum) | CLint scaled at 0.5 h, 0.5 µM (in vitro [6]) | microsomal CLint at 0.5 h, 0.5 µM (in vitro [6]) | CLint scaled at 0.5 h, 0.5 µM (in vitro [7]) | microsomal CLint at 0.5 h, 0.5 µM (in vitro [7]) | logD (physchem) | Papp (in vitro [8]) | SMILES | IC50 (cells) | IC50 (Macrophage) | selectivity ratio (in vitro [2]) | selectivity ratio (in vitro [4]) | IC50 (Trypanosoma cruzi) | IC90 (Trypanosoma cruzi) | further results |
| --- | --- | --- | --- | --- | --- | --- | --- | --- | --- | --- | --- | --- | --- | --- | --- | --- | --- | --- | --- | --- | --- |
| 64 µM | 64 µM | 51.1 µM | 64 µM | 35.4 µM | 64 µM | 64 µM | 64 µM |  |  |  |  |  |  | CC(C)c1cc(C(=O)N2CCCC(O)(c3cc4ncccc4n3S(=O)(=O)c3ccccc3)C2)on1 (stereo not drawn) | 64 µM | 64 µM | 1.26 | 1.8 | 51.3 µM | 64 µM |  |
| 64 µM | 64 µM | 64 µM | 64 µM | 30.3 µM | 64 µM | 24.7 µM | 46.1 µM | < 33.3 mL/min/kg | < 23 µL/min/mg | 1310 mL/min/kg | 305 µL/min/mg | 2.89 | 1.65 ×10⁻⁶ cm/s | O=C(c1ccccc1)N1CC=C(c2cc3ncccc3[nH]2)CC1 | 64 µM | 64 µM | 26.8 | 2.1 | 2.39 µM | 12.3 µM |  |
| 64 µM | 64 µM | 64 µM | 64 µM | 64 µM | 64 µM | 64 µM | 64 µM | 95.8 mL/min/kg | 58.2 µL/min/mg | 5410 mL/min/kg | 1110 µL/min/mg | 3.12 | 2.86 ×10⁻⁶ cm/s | O=C(c1cc(C(F)(F)F)no1)N1CCC(c2cc3ncccc3[nH]2)C1 (stereo not drawn) | 64 µM | 64 µM | 7.25 |  | 8.3 µM | 64 µM | fraction unbound at 0.5 h, 0.5 µM (in vitro [9]): 0.656 |
| 64 µM | 64 µM | 64 µM | 64 µM | 38.3 to 64 µM | 64 µM | 64 µM | 64 µM | 38.8 mL/min/kg | 24.7 µL/min/mg | 2360 mL/min/kg | 508 µL/min/mg | 2.68 | 2.88 ×10⁻⁶ cm/s | O=C(c1ccccc1)N1CCCC(c2cc3ncccc3[nH]2)C1 (stereo not drawn) | 64 µM | 64 µM | 7.13 to 7.5 | 1.7 | 8.5 to 9.02 µM | 31.1 to 45.3 µM |  |
| 32 µM | 32 µM | 32 µM | 32 µM | 5.88 µM | 23.4 µM | 24.7 µM | 32 µM |  |  |  |  |  |  | COc1cccc2[nH]c(C(=O)N3CCCC(c4cc5ncccc5[nH]4)C3)cc12 (stereo not drawn) | 32 µM | 32 µM | 29.4 | 5.44 | 1.09 µM | 5.34 µM |  |
| 32 µM | 32 µM | 32 µM | 32 µM | 17.8 µM | 32 µM | 28.5 µM | 32 µM | 207 mL/min/kg |  | 10300 mL/min/kg |  |  |  | COc1ccc(Cl)cc1C(=O)N1CCCC(c2cc3ncccc3[nH]2)C1 (stereo not drawn) | 32 µM | 32 µM | 8.54 | 1.79 | 3.75 µM | 7.59 µM |  |
